pEC50: −log10 of the molar value.
Experiments:
[1] = tested on: IL-6 (THP-1 human monocyte cell line); assay: IL-6 inhibition in LPS-stimulated THP-1 cells (HTRF); assay type: cell-based; conditions: LPS 500 ng/mL; for pEC50: 22 hours, IL6 HTRF; for inhibition at 10 µM: given for EC50 >10 μM, read-out: percent inhibition at 10 μM
Protocol: Human monocyte cell line (THP-1 cells; Catalog # TIB-202, ATCC, Manassas, Va.) were cultured in Roswell Park Memorial Institute (RPMI) 1640 Medium (Catalog #21870-100, Buffalo, N.Y.) with 1% L-glutamine, 1% HEPES, 1% Sodium Pyruvate, 2% Sodium Bicarbonate supplemented with 100 units/mL penicillin, 50 μg/mL streptomycin, 2-mercaptoethanol (0.05 mM) [basal medium] and 10% fetal bovine serum (Catalog #16140089, Life Technologies, Carlsbad, Calif.) at 37° C. and 5% CO2.
THP-1 cells were cultured in basal media with 1% FBS for 24 hours before the start of the assay. Each compound was dissolved in DMSO as a 10 mM stock and used to prepare compound source plates. Serial dilution (1:3, 10-point dose-response curves starting from […]) and compound transfer was performed using the ECHO 550 (Labcyte, Sunnyvale, Calif.) into 384-well white low volume assay plates (Greiner Bio-One) with appropriate DMSO backfill for a final DMSO concentration of 0.1%. THP-1 cells were plated at 5000 cells/well in the 384-well plates and incubated at 37° C. for 2 h. 500 ng/mL of LPS was added after 2 hours and cells were incubated for another 22 hours at 37° C. Plates were spun in a centrifuge for 1 minute at 10,000 rpm and a mixture of anti-IL6 XL665, and anti-IL6 Cryptate diluted in reconstitution buffer (Cisbio Inc.) was added to each well. Following incubation for 3 hrs at room temperature, Homogeneous Time-Resolved Fluorescence (HTRF) was measured using the Envision (Perkin Elmer) at 665 nm and […]. The ratio of fluorescence at 665 nm to 620 nm was used as a readout for IL6 quantification. All samples were processed in duplicate. Readings were normalized to DMSO treated cells and normalized activities were utilized for EC50 calculations using the dose-response log (inhibitor) vs. response—variable slope (four parameters) nonlinear regression feature available in GraphPad Prism 5.0 (or Dotmatics). For EC50 of >10 μM, the percent inhibition at 10 μM is provided.

[2] = tested on: primary human mesenchymal stem cells (hMSCs); assay: Chondrogenesis induction in hMSCs (nodule count, Rhodamine B/Nile Red); assay type: cell-based; conditions: 144 h, 6 days; for EC50: concentration required to induce 50% levels of chondrogenesis vs TGF-β3, read-out: Conc (nM) of 50% TGF-β3 activity; for Emax: relative to TGF-β3 (10 ng/mL) positive control, read-out: Max. Activity as % TGF-β3 activity
Protocol: Representative compounds were screened using primary human mesenchymal stem cells (hMSCs) to determine their ability to induce chondrogenesis (process by which cartilage is developed).
Primary human mesenchymal stem cells (hMSCs) were purchased from Lonza (Walkersville, Md.) and expanded in Mesenchymal Stem Cell Growth Media (Lonza). Cells between passage 3 and 6 were used for the experiments.
Each compound was dissolved in DMSO as a 10 mM stock and used to prepare compound source plates. Serial dilution (1:3, 6-point dose-response curves from 2700 nM to 10 nM) and compound transfer was performed using the ECHO 550 (Labcyte, Sunnyvale, Calif.) into 96-well clear bottom assay plates (Greiner Bio-One) with appropriate DMSO backfill for a final DMSO concentration of 0.03%. hMSCs were plated at 20,000 cells/well in 250 μL/well Incomplete Chondrogenic Induction Medium (Lonza; DMEM, dexamethasone, ascorbate, insulin-transferrin-selenium [ITS supplement], gentamycin-amphotericin [GA-1000], sodium pyruvate, proline and L-glutamine). TGF-β3 (10 ng/mL) was used as a positive control for differentiation while negative control wells were treated with 75 nL DMSO for normalization and calculating EC50 values. Cells were incubated at 37° C. and 5% CO2 for 6 days. To image chondrogenic nodules, the cells were fixed using 4% formaldehyde (Electron Microscopy Sciences), and stained with 2 μg/mL Rhodamine B (Sigma-Aldrich) and 20 μM Nile Red (Sigma-Aldrich) [Johnson K., et. al, A Stem Cell-Based Approach to Cartilage Repair, Science, (2012), 336(6082), 717-721]. The nodules imaged (4 images per well at 4× magnification) by excitation at 531 nm and emission at 625 nm and quantified using the CellInsight CX5 (Thermo Scientific). Number of nodules in each well was normalized to the average of 3 DMSO treated wells on the same plate using Excel (Microsoft Inc.). The normalized averages (fold change over DMSO) of 3 replicate wells for each compound concentration were calculated. Due to solubility limitations of some of the compounds, curve fitting was incomplete leading to inaccurate EC50 determinations.
Using TGF-β3 as a positive control, the concentration of representative compounds required to induce 50% levels of chondrogenesis is reported. In addition, the maximum activity of each compound and the respective dose that each compound reached maximum chondrogenesis activity is reported.

Row | SMILES | pEC50 [1] | EC50 [2] | inhibition at 10 µM [1] | Emax [2]
1 | CN(C)Cc1cncc(-c2cnc3[nH]nc(-c4cc5c(-c6cccc(F)c6)ccnc5[nH]4)c3c2)c1 [Compound 13, 1-(5-(3-(4-(3-Fluorophenyl)-1H-pyrrolo[2,3-b]pyridin-2-yl)-1H-pyrazolo [3,4-b]pyridin-5-yl)pyridin-3-yl)-N,N-dimethylmethanamine] | < 5.00 | 100 nM | 27.5% | 102%
2 | Cc1ccncc1-c1cnc2[nH]nc(-c3cc4c(-c5ccc(F)cc5)ccnc4[nH]3)c2c1 [Compound 33, 3-(4-(4-Fluorophenyl)-1H-pyrrolo[2,3-b]pyridin-2-yl)-5-(4-methylpyridin-3-yl)-1H-pyrazolo[3,4-b]pyridine] | < 5.00 | 900 nM | 27.7% | 108%
3 | Fc1ccc(-c2ccnc3[nH]c(-c4n[nH]c5ncc(-c6cncc(CN7CCCC7)c6)cc45)cc23)cc1 [Compound 42, 3-(4-(4-Fluorophenyl)-1H-pyrrolo[2,3-b]pyridin-2-yl)-5-(5-(pyrrolidin-1-ylmethyl)pyridin-3-yl)-1H-pyrazolo[3,4-b]pyridine] | < 5.00 | – | 36.8% | 25%
4 | Nc1cncc(-c2cnc3[nH]nc(-c4cc5c(-c6ccccc6F)ccnc5[nH]4)c3c2)c1 [Compound 59, 5-(3-(4-(2-Fluorophenyl)-1H-pyrrolo[2,3-b]pyridin-2-yl)-1H-pyrazolo[3,4-b]pyridin-5-yl)pyridin-3-amine] | < 5.00 | – | 34.8% | 28%
5 | CCCC(=O)Nc1cncc(-c2cnc3[nH]nc(-c4cc5c(N6CCCCC6)ccnc5[nH]4)c3c2)c1 [Compound 185, N-(5-(3-(4-(Piperidin-1-yl)-1H-pyrrolo[2,3-b]pyridin-2-yl)-1H-pyrazolo[3,4-b]pyridin-5-yl)pyridin-3-yl)butyramide] | < 5.00 | – | 41.2% | –
6 | c1ncc(-c2cnc3[nH]nc(-c4cc5c(N6CCCCC6)ccnc5[nH]4)c3c2)cn1 [Compound 195, 3-(4-(Piperidin-1-yl)-1H-pyrrolo[2,3-b]pyridin-2-yl)-5-(pyrimidin-5-yl)-1H-pyrazolo[3,4-b]pyridine] | < 5.00 | – | 49.8% | –
7 | CN1CCN(c2ccnc3[nH]c(-c4n[nH]c5ncc(-c6cncc(NC(=O)C7CCCCC7)c6)cc45)cc23)CC1 [Compound 247, N-(5-(3-(4-(4-Methylpiperazin-1-yl)-1H-pyrrolo[2,3-b]pyridin-2-yl)-1H-pyrazolo[3,4-b]pyridin-5-yl)pyridin-3-yl)cyclohexanecarboxamide] | 6.30 | – | – | –
8 | c1cnc2[nH]c(-c3n[nH]c4ncc(-c5ccncc5)cc34)cc2c1 [Compound 270, 5-(Pyridin-4-yl)-3-(1H-pyrrolo[2,3-b]pyridin-2-yl)-1H-pyrazolo[3,4-b]pyridine] | 5.33 | – | – | –
9 | O=C(Nc1cncc(-c2cnc3[nH]nc(-c4cc5cccnc5[nH]4)c3c2)c1)C1CCCC1 [Compound 274, N-(5-(3-(1H-Pyrrolo[2,3-b]pyridin-2-yl)-1H-pyrazolo[3,4-b]pyridin-5-yl)pyridin-3-yl)cyclopentanecarboxamide] | 6.38 | – | – | –
10 | O=C(Nc1cncc(-c2cnc3[nH]nc(-c4cc5c(-c6cccs6)ccnc5[nH]4)c3c2)c1)C1CC1 [Compound 356, N-(5-(3-(4-(Thiophen-2-yl)-1H-pyrrolo[2,3-b]pyridin-2-yl)-1H-pyrazolo[3,4-b]pyridin-5-yl)pyridin-3-yl)cyclopropanecarboxamide] | 6.55 | – | – | –
11 | Cc1ncc(-c2cnc3[nH]nc(-c4cc5c(-c6cc(F)cc(NCCN(C)C)c6)ccnc5[nH]4)c3c2)n1C [Compound 781, N^1-(3-(2-(5-(1,2-Dimethyl-1H-imidazol-5-yl)-1H-pyrazolo[3,4-b]pyridin-3-yl)-1H-pyrrolo[2,3-b]pyridin-4-yl)-5-fluorophenyl)-N^2,N^2-dimethylethane-1,2-diamine] | < 5.00 | – | 44.5% | –

Further lines, with some results ahead:

Row | pEC50 [1] | EC50 [2] | SMILES | inhibition at 10 µM [1] | Emax [2]
12 | < 5.00 | – | CC(C)(C)CC(=O)Nc1cncc(-c2cnc3[nH]nc(-c4cc5c(-c6ccoc6)ccnc5[nH]4)c3c2)c1 [Compound 324, N-(5-(3-(4-(Furan-3-yl)-1H-pyrrolo[2,3-b]pyridin-2-yl)-1H-pyrazolo[3,4-b]pyridin-5-yl)pyridin-3-yl)-3,3-dimethylbutanamide] | 28.6% | –
13 | 7.49 | – | CN(C)c1cncc(-c2cnc3[nH]nc(-c4cc5c(-c6cccs6)ccnc5[nH]4)c3c2)c1 [Compound 343, N,N-Dimethyl-5-(3-(4-(thiophen-2-yl)-1H-pyrrolo[2,3-b]pyridin-2-yl)-1H-pyrazolo[3,4-b]pyridin-5-yl)pyridin-3-amine] | – | –
14 | 5.82 | – | CN(C)CCNc1cc(F)cc(-c2ccnc3[nH]c(-c4n[nH]c5ncc(-c6cncc(NC(=O)C(C)(C)C)c6)cc45)cc23)c1 [Compound 456, N-(5-(3-(4-(3-((2-(Dimethylamino)ethyl)amino)-5-fluorophenyl)-1H-pyrrolo [2,3-b]pyridin-2-yl)-1H-pyrazolo[3,4-b]pyridin-5-yl)pyridin-3-yl)pivalamide] | – | –
15 | 6.65 | – | CN(C)CCNc1cc(F)cc(-c2ccnc3[nH]c(-c4n[nH]c5ncc(-c6cncc(NC(=O)C7CCC7)c6)cc45)cc23)c1 [Compound 469, N-(5-(3-(4-(3-((2-(Dimethylamino)ethyl)amino)-5-fluorophenyl)-1H-pyrrolo [2,3-b]pyridin-2-yl)-1H-pyrazolo[3,4-b]pyridin-5-yl)pyridin-3-yl)cyclobutanecarboxamide] | – | –
16 | < 5.00 | – | Fc1cccc(-c2ccnc3[nH]c(-c4n[nH]c5ncc(-c6cncc(OCc7ccccc7)c6)cc45)cc23)c1 [Compound 518, 5-(5-(Benzyloxy)pyridin-3-yl)-3-(4-(3-fluorophenyl)-1H-pyrrolo[2,3-b]pyridin-2-yl)-1H-pyrazolo[3,4-b]pyridine] | 6.3% | –
17 | < 5.00 | – | Oc1cncc(-c2cnc3[nH]nc(-c4cc5c(-c6ccc(F)cc6)ccnc5[nH]4)c3c2)c1 [Compound 533, 5-(3-(4-(4-Fluorophenyl)-1H-pyrrolo[2,3-b]pyridin-2-yl)-1H-pyrazolo[3,4-b]pyridin-5-yl)pyridin-3-ol] | 20.7% | –
18 | < 5.00 | – | CN(C)CCOc1cncc(-c2cnc3[nH]nc(-c4cc5c(-c6cccnc6)ccnc5[nH]4)c3c2)c1 [Compound 563, N,N-dimethyl-2-((5-(3-(4-(pyridin-3-yl)-1H-pyrrolo[2,3-b]pyridin-2-yl)-1H-pyrazolo[3,4-b]pyridin-5-yl)pyridin-3-yl)oxy)ethan-1-amine] | 18.7% | –
19 | < 5.00 | – | c1csc(-c2ccnc3[nH]c(-c4n[nH]c5ncc(-c6cncc(OC7CCCCC7)c6)cc45)cc23)c1 [Compound 703, 5-(5-(Cyclohexyloxy)pyridin-3-yl)-3-(4-(thiophen-2-yl)-1H-pyrrolo[2,3-b]pyridin-2-yl)-1H-pyrazolo[3,4-b]pyridine] | 11% | –
